Results as given in paper PMC4228444 (BMC Complementary and Alternative Medicine, 2013).
Values after ≈ are worked out from the molar mass of the structure shown. Values joined by “and” are separate entries in the source; they are usually repeats but may differ in a detail not shown here. Equal values may be shown once. Numbered stars: 1 amine (or outer) side, 2 acyl side, 3 side chain; on linkers, the order of the positions; unused ones are H or OH. Bridge positions count the residues as written; N and C are the ends. Square brackets hold non-standard residues; d marks the D form. Peptide text beside a SMILES is read from it. I, II: the chains in the order shown. Actinocin(9to1) = Cc1c2oc3c(C)ccc(C(=O)[*:1])c3nc-2c(C(=O)[*:2])c(N)c1=O; NMeV = CN[C@H](C(=O)O)C(C)C; Sar = CNCC(=O)O

Columns and labels:
[1] = isolated from Anacardium occidentale; cited from earlier work
DPPH antioxidant assay = format: biochemical; settings: for Antioxidant IC50 / IC50: DPPH; for Antioxidant IC50: 550 nm; for IC50: value in brackets; for Antioxidant Mg Vit C equivalents/g dry weight: IC50 vit C/IC50 sample × 1000
Method: Antioxidant activity of the ethanol extract of S. jambos and compounds was investigated using 1,2-diphenyl-1-picrylhydrazyl (DPPH) antioxidant assay. Following the procedures as described by DuToit et al. for each sample, a dilution series (8 dilutions) was prepared in a 96 well plate by adding distilled water as a dilution medium. Final concentration of the samples ranged from 100 to 0.7 μg/ml. Each concentration was tested in triplicate. Vitamin C was used as a positive control. […] The radical scavenging activity was measured in terms of the amount of antioxidants necessary to decrease the initial DPPH absorbance by 50% (IC50). The IC50 value of each sample was determined graphically by plotting the absorbance of DPPH as a function of the sample concentration in μg/ml. The IC50 is the amount of antioxidant necessary to decrease the initial DPPH absorbance by 50%. The results are expressed as the mg vitamin C equivalents/g dry weight and calculated as follows: […]

[2] = In vitro cytotoxicity assay (XTT), U937; settings: human
Method: (§1) The mouse melanocytes (B16-F10) cells were cultured in a complete Minimum Essential Eagle’s Medium (MEM) whereas the human U937 cells were cultured in Roswell Park Memorial Institute (RPMI) containing 10% fetal bovine serum (FBS) and 1% gentamycin. B16-F10 (10^5 cells per well) and U937 (10^6 cells per well) were seeded into a 96-well plate. After an overnight incubation at 37°C in 5% CO2 and a humidified atmosphere, the extract, compounds and the positive control (actinomycin D) were added to the cells. […] The highest concentration of positive control (0.05 μg/ml) was serially diluted to eight consecutive wells. The plate was then incubated at 37°C in 5% CO2, and a humidified atmosphere after which the toxic effects of the extracts were assayed using the XTT (sodium 3’-[1-(phenyl amino-carbonyl)-3,4-tetrazolium]-bis-[4-methoxy-6-nitrobenzene sulfonic acid hydrate) cytotoxicity assay. […] The optical densities of the wells were measured at 450 nm (690 nm reference wavelength) using BIOTEK Power-wave XS multi well reader (A.D.P., Weltevreden Park, South Africa). By referring to the control (medium with DMSO), the cell survival rate was assessed.

TNF α = TNF α release from U937 cells stimulated with heat-killed P. acnes (ELISA); format: cell-based, human; settings: for Inhibitory ratio (%) TNF α: 18 h; for Suppression of TNF α release (range stated jointly for IL 8 and TNF α): abstract summary
Method: (§2) Briefly, the log phase culture of P. acnes was harvested, washed three times with phosphate buffer saline (PBS), and incubated at 80°C for 30 min to kill the bacteria. The heat-killed bacteria were stored at 4°C until use. […] Pentoxifylline was used as a control. […] Cytokine standards were serially diluted to facilitate the construction of calibration curves necessary for determining protein concentration after treatment with test samples. The ratio (%) of inhibition of the cytokine release was calculated using the following equation: […] Where T represents the concentration of the cytokine in the culture supernatant with the test sample, and C represents the concentration of cytokine in the culture supernatant with the solvent.

[3] = In vitro cytotoxicity assay (XTT), B16-F10; settings: mouse
Method: as §1

[4] = tested on: Propionibacterium acnes (ATCC 11827); assay: Antibacterial activity, broth microdilution MIC (INT colour change); format: cell-based; settings: P. acnes, 72 h anaerobic; for MIC: Cutibacterium acnes, ATCC11827, 72 h
Method: The ethanol extract and compounds were tested against P. acnes by determining the minimum inhibitory concentration (MIC) values obtained by a microdilution method as previously described with few modifications. Briefly, the bacteria was cultured from a Kwik-Stick on nutrient agar and incubated at 37°C for 72 h under anaerobic conditions before the assay. The 72 h culture of the bacteria was dissolved in nutrient broth and the suspension was adjusted to 0.5 McFarland standard turbidity. […] In a sterile 96-well plate, 100 μl of samples from the stock solution consisting of the plant extract/isolated compounds (2 mg/ml in 10% dimethyl sulphoxide (DMSO)) and the positive control tetracycline (0.2 mg/ml) were diluted with broth. Twofold serial dilutions were made in broth over a range to give concentrations of 500–3.9 μg/ml and 50–0.3 and μg/ml for the plant extract/ isolated compounds and positive control tetracycline, respectively. The bacterial suspension (100 μl) was then added to the wells. The wells with 2.5% DMSO and bacterial suspension without samples served as the solvent and negative controls, respectively. The plates were incubated at 37°C for 72 h in an anaerobic environment.

U937 human macrophage = assay: In vitro cytotoxicity assay (XTT), U937; settings: U937 cells
Method: as §1

IL 8 = IL 8 release from U937 cells stimulated with heat-killed P. acnes (ELISA); format: cell-based, human; settings: for Inhibition of IL 8 in words: at the highest concentration tested; for Inhibitory ratio (%) IL 8: 18 h; for Suppression of IL 8 release (range stated jointly for IL 8 and TNF α): abstract summary
Method: as §2

[5] = tested on: B16-F10 mouse melanocytes; assay: In vitro cytotoxicity assay (XTT), B16-F10; settings: B16-F10 cells
Method: as §1

[6] = tested on: vancomycin-resistant enterococci; set-up: method as in PMID 17541170; settings: cited from earlier work
P. acnes [7] = tested on: P. acnes; set-up: method as in doi:10.1021/jf00030a036; settings: cited from earlier work
P. acnes [8] = assay: Transmission electron microscopy of treated P. acnes; format: cell-based, Propionibacterium acnes; settings: 50 μg/ml, 72 h
Method: The TEM procedures followed the protocol of a previous publication. Briefly, bacteria was concentrated by centrifugation at 10 000 rpm for 1 min. The pellet was resuspended in nutrient broth to a final OD550 nm of 1. […] The bacterial suspension (5 ml) was mixed with plant extract and pure compound to a final concentration of 300 and 100 μg/ml for plant extract and 50 μg/ml for pure compound. Tetracycline (50 μg/ml) and DMSO (2.5%) were used as positive and solvent control, respectively. The pathogen was treated for 72 h; the control group consisted of only bacterial suspension in nutrient broth. Treated and untreated P. acnes cultures were centrifuged and fixed in 2.5% glutraldehyde in phosphate buffer at room temperature for 1 h. Samples were washed with phosphate buffer and postfixed in both 1% osmium tetraoxide and uranyl acetate. The cells were dehydrated in ethanol and embedded in quetol resin. Thin sections were prepared with a microtome and micrographs were taken using a JEOL JEM-2100 F field emission electron microscope.

[9] = at the highest concentration tested

## 6-pentadecenylsalicylic acid
[1]
  DPPH radical scavenging activity in words: did not exhibit notable DPPH radical scavenging activity

## O=C(O)c1cc(O)c(O)c(O)c1 [Gallic acid, gallic acid]
DPPH antioxidant assay
  Antioxidant IC50: 0.8 µg/mL
  IC50: 4.8 µM
  Antioxidant Mg Vit C equivalents/g dry weight: 2444.9 Mg Vit C equivalents/g dry weight
[2]
  EC50: 28.4 µg/mL and 169 µM
TNF α; [9]
  Inhibition of TNF α in words: suppressed TNF α drastically
[3]
  EC50: 2.2 µg/mL and 13.1 µM
[4]; 37°C
  MIC: > 500 µg/mL
  Antibacterial MIC: Na (not active at the highest concentration tested (500 μg/ml))

## O=c1c(O)c(-c2cc(O)c(O)c(O)c2)oc2cc(O)cc(O)c12 [Myricetin, myricetin]
DPPH antioxidant assay
  Antioxidant IC50: 0.9 µg/mL
  IC50: 3 µM
  Antioxidant Mg Vit C equivalents/g dry weight: 2105.0 Mg Vit C equivalents/g dry weight
[2]; U937 human macrophage cells
  EC50: 19.3 µg/mL and 60 µM
U937 human macrophage
  Toxicity in words: moderate toxicity
TNF α; [9]
  Inhibition of TNF α in words: moderately decreased
TNF α; final concentration 3.1 μg/ml
  Inhibitory ratio (%) TNF α: -4.8%
TNF α; final concentration 6.2 μg/ml
  Inhibitory ratio (%) TNF α: 27.1%
TNF α; final concentration 12.5 μg/ml
  Inhibitory ratio (%) TNF α: 44.1%
IL 8
  Inhibition of IL 8 in words: low inhibition
IL 8; final concentration 3.1 μg/ml
  Inhibitory ratio (%) IL 8: -0.5%
IL 8; final concentration 6.2 μg/ml
  Inhibitory ratio (%) IL 8: 10%
IL 8; final concentration 12.5 μg/ml
  Inhibitory ratio (%) IL 8: 34%
[5]
  Toxicity in words: significant toxicity
[3]; B16-F10 mouse melanocyte cells
  EC50: 11.1 µg/mL and 35.1 µM
[4]; 37°C
  MIC: > 500 µg/mL
  Antibacterial MIC: Na (not active at the highest concentration tested (500 μg/ml))

## CC(=O)CCCCn1c(=O)c2c(ncn2C)n(C)c1=O [Pentoxifylline, reference compound]
TNF α; at 100 and 50 μg/ml
  Inhibition of TNF α in words: Very high inhibition
TNF α; final concentration 10 μg/ml
  Inhibitory ratio (%) TNF α: 66.8%
TNF α; final concentration 50 μg/ml
  Inhibitory ratio (%) TNF α: 99.7%
TNF α; final concentration 100 μg/ml
  Inhibitory ratio (%) TNF α: 99.7%
IL 8; final concentration 10 μg/ml
  Inhibitory ratio (%) IL 8: -0.16%
IL 8; final concentration 50 μg/ml
  Inhibitory ratio (%) IL 8: -5.0%
IL 8; final concentration 100 μg/ml
  Inhibitory ratio (%) IL 8: -1.3%
IL 8; pentoxifylline control
  Change in IL 8 concentration in words: no significant change

## CC(C)=CCC/C(C)=C/CC/C(C)=C/CC/C=C(\C)CC/C=C(\C)CCC=C(C)C [Squalene, squalene]
DPPH antioxidant assay
  Antioxidant IC50: >100 µg/mL
[2]
  EC50: > 100 µg/mL
  viability at 100 μg/ml: 100%
[3]; B16-F10 melanocyte cells
  viability at 100 μg/ml: 100%
[3]; B16-F10 mouse melanocyte cells
  EC50: > 100 µg/mL
[4]; 37°C
  MIC: > 500 µg/mL
  Antibacterial MIC: Na (not active at the highest concentration tested (500 μg/ml))

## C[C@H]1[C@H](C)CC[C@]2(C(=O)O)CC[C@]3(C)C(=CC[C@@H]4[C@@]5(C)CC[C@H](O)C(C)(C)[C@@H]5CC[C@]43C)[C@H]12 [Ursolic acid, ursolic acid]
[2]; U937 human macrophage cells
  EC50: 38 µg/mL and 83.2 µM
U937 human macrophage
  Toxicity in words: moderately toxic
TNF α
  Suppression of TNF α release (range stated jointly for IL 8 and TNF α): 74 - 99%
TNF α; [9]
  Inhibition of TNF α in words: significant inhibition
IL 8
  Suppression of IL 8 release (range stated jointly for IL 8 and TNF α): 74 - 99%
  Inhibition of IL 8 in words: significant inhibition
[6]
  MIC: 4 µg/mL (≈ 8.76 µM)
[4]; 37°C
  MIC: > 500 µg/mL
  Antibacterial MIC: Na (not active at the highest concentration tested (500 μg/ml))

## Cc1c2oc3c(C)ccc(C(=O)N[C@@H]4C(=O)N[C@H](C(C)C)C(=O)N5CCC[C@H]5C(=O)N(C)CC(=O)N(C)[C@@H](C(C)C)C(=O)O[C@@H]4C)c3nc-2c(C(=O)N[C@@H]2C(=O)N[C@H](C(C)C)C(=O)N3CCC[C@H]3C(=O)N(C)CC(=O)N(C)[C@@H](C(C)C)C(=O)O[C@@H]2C)c(N)c1=O [actinomycin D, reference compound] (I: T[dV]P[Sar][NMeV] / II: T[dV]P[Sar][NMeV]; ester I:1-I:C, II:1-II:C; linker I:N-II:N via Actinocin(9to1))
[2]
  EC50: 0.0045 µg/mL (≈ 0.00358 µM)
[3]
  EC50: 0.0045 µg/mL (≈ 0.00358 µM)

## CCCCCCCCCCCCCCCc1cccc(O)c1C(=O)O [pentadecyl salicylic acid]
P. acnes [7]
  MIC: 0.78 µg/mL (≈ 2.24 µM)

## CN(C)[C@@H]1C(O)=C(C(N)=O)C(=O)[C@@]2(O)C(O)=C3C(=O)c4c(O)cccc4[C@@](C)(O)[C@H]3C[C@@H]12 [tetracycline, reference compound]
P. acnes [8]
  TEM: cell injury to P. acnes: significant damages to the cells of P. acnes
[4]; 37°C
  MIC: 3.1 µg/mL
[4]; value in brackets
  MIC: 7 µM

## O=C1O[C@H]([C@@H](O)CO)C(O)=C1O [vitamin C, reference compound]
DPPH antioxidant assay
  Antioxidant IC50: 1.9 µg/mL
  IC50: 11.3 µM

## myricitrin
DPPH antioxidant assay
  Antioxidant IC50: 1.8 µg/mL
  IC50: 4 µM
  Antioxidant Mg Vit C equivalents/g dry weight: 1081.0 Mg Vit C equivalents/g dry weight
TNF α
  Suppression of TNF α release (range stated jointly for IL 8 and TNF α): 74 - 99%
TNF α; [9]
  Inhibition of TNF α in words: significant inhibition
TNF α; final concentration 10 μg/ml
  Inhibitory ratio (%) TNF α: 32.8%
TNF α; final concentration 50 μg/ml
  Inhibitory ratio (%) TNF α: 99.7%
TNF α; final concentration 100 μg/ml
  Inhibitory ratio (%) TNF α: 99.7%
IL 8
  Suppression of IL 8 release (range stated jointly for IL 8 and TNF α): 74 - 99%
  Inhibition of IL 8 in words: significant inhibition
IL 8; final concentration 10 μg/ml
  Inhibitory ratio (%) IL 8: 40.6%
IL 8; final concentration 50 μg/ml
  Inhibitory ratio (%) IL 8: 94.3%
IL 8; final concentration 100 μg/ml
  Inhibitory ratio (%) IL 8: 99.6%
[4]; 37°C
  Antibacterial MIC: Na (not active at the highest concentration tested (500 μg/ml))
[4]; 37°C, listed as myricitrin
  Antibacterial MIC: > 500 µg/mL

## pentadecadienyl salicylic acid
P. acnes [7]
  MIC: 0.78 µg/mL

## pentadecatrienyl salicylic acid
P. acnes [7]
  MIC: 0.78 µg/mL

## pentadecenyl salicylic acid
P. acnes [7]
  MIC: 0.78 µg/mL
